Data reported in US20090062253A1, “HETEROCYCLODIAZEPINE CANNABINOID RECEPTOR MODULATORS FOR TREATMENT OF DISEASE” (KALYPSYS, INC., priority 2007, published 2009).

Assays:
Human CB2 = target: T1, Human CB2 (Homo sapiens, UniProt P34972); assay: Human CB2 Radioligand Binding Assay; settings: membranes from stably transfected CHO CB2 cells; competition with [3H] CP-55,940; read-out: CB2 Ligand Binding Asssay
T1 construct: expressed in transfected cells; membrane preparation
Method in brief: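 Filtration competition against [3H]CP-55,940 at its Kd on membranes from CHO cells stably expressing human CB2; compounds at 10 uM single point or dose-response, 1% DMSO. Buffer 50 mM Tris-HCl pH 7.4, EGTA, MgCl2, 5.0 mg/ml BSA; 90 min at 30° C, scintillation read; 100 nM CP-55,940 = 100%.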

[1] = target: T2, human cannabinoid receptor type 1 (Homo sapiens, UniProt P21554); assay: Human CB1 Radioligand Binding Assay (basis of selectivity CB2 vs. CB1)
T2 construct: purchased Perkin Elmer RBHCB1M; host or cells: HEK 293 EBNA cells
Method in brief: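 Filtration competition binding against [3H] CP-55,940 at its Kd, using membranes from HEK 293 EBNA cells expressing human CB1; 90 minutes at 30° C in 50 mM Tris-HCl pH 7.4, 2.5 mM EDTA, 5 mM MgCl2, 5.0 mg/ml BSA, 1% DMSO. Single point 10 uM or dose-response; 100 nM CP-55,940 defined 100% efficacy.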

T1 sequence (P34972 whole entry): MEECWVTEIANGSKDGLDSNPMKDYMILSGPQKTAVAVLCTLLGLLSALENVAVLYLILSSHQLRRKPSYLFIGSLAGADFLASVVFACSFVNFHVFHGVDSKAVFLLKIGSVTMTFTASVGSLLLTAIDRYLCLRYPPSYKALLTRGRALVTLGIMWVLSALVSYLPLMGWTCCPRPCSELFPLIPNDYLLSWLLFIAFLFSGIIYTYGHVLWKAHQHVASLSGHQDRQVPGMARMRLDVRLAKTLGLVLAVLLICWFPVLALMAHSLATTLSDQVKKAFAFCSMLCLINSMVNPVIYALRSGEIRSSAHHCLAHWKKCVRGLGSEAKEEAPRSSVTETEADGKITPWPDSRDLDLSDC
T2 sequence (P21554 whole entry): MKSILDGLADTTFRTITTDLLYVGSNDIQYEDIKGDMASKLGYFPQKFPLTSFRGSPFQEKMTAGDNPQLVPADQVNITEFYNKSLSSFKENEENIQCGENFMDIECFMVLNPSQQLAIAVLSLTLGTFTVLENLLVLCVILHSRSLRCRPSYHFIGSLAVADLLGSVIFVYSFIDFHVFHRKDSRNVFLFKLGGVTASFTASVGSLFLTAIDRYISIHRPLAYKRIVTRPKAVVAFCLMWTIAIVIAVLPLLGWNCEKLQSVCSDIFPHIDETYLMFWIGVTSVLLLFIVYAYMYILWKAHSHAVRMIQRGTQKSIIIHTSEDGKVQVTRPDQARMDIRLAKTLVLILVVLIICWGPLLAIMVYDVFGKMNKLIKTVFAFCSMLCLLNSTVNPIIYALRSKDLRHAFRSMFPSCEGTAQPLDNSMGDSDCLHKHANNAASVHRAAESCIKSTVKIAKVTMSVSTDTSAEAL

IC50 (radioligand displacement) (Human CB2) | Selectivity, CB2 vs. CB1 [1] | Compound
> 1000 nM | − (− indicates < 10-fold) | CC(C)(C)c1ccc(C2=C(C(=O)Nc3ccc(F)cc3F)CCCn3cncc32)cc1 [Example 78, ((E)-9-(4-tert-Butylphenyl)-N-(2,4-difluorophenyl)-6,7-dihydro-5H-imidazo[1,5-a]azepine-8-carboxamide]
> 1000 nM | − (− indicates < 10-fold) | CC(C)(C)c1ccc(C2c3cccnc3OCCN2C(=O)Nc2ccc(Cl)cc2Cl)cc1 (stereo not drawn) [Example 140, 5-(4-tert-Butylphenyl)-N-(2,4-dichlorophenyl)-2,3-dihydropyrido[3,2-f][1,4]oxazepine-4(5H)-carboxamide]
> 1000 nM | − (− indicates < 10-fold) | O=C(Nc1ccc(Cl)cc1Cl)N1CCCn2cccc2C1c1ccccc1 (stereo not drawn) [Example 13, N-(2,4-Dichlorophenyl)-1-phenyl-4,5-dihydro-1H-pyrrolo[1,2-a][1,4]diazepine-2(3H)-carboxamide]
< 1000 nM | + (+ indicates > 10-fold) | CC(C)(C)c1ccc(C2c3cncn3CCCN2C(=O)Nc2ccc(F)cc2F)cc1 (stereo not drawn) [Example 37, 9-(4-tert-Butylphenyl)-N-(2,4-difluorophenyl)-6,7-dihydro-5H-imidazo[1,5-a][1,4]diazepine-8(9H)-carboxamide]
< 1000 nM | − (− indicates < 10-fold) | CC(C)(C)C1CCC(C2c3cccn3CCCN2C(=O)Nc2ccc(Cl)cc2Cl)CC1 (stereo not drawn) [Example 35, 1-(4-tert-Butylcyclohexyl)-N-(2,4-dichlorophenyl)-4,5-dihydro-1H-pyrrolo[1,2-a][1,4]diazepine-2(3H)-carboxamide]
< 1000 nM | − (− indicates < 10-fold) | O=C(Nc1ccc(Cl)cc1)[C@H]1CCCn2cccc2[C@H]1c1ccccc1 (relative stereo) [Example 110, (8,9-cis)-N-(4-Chlorophenyl)-9-phenyl-6,7,8,9-tetrahydro-5H-pyrrolo[1,2-a]azepine-8-carboxamide]
< 1000 nM | − (− indicates < 10-fold) | CC(C)(C)c1ccc(C2c3cccn3CCCC2C(=O)Nc2ccc(OC(F)(F)F)cc2)cc1 (stereo not drawn) [Example 94, 9-(4-tert-Butylphenyl)-N-(4-(trifluoromethoxy)phenyl)-6,7,8,9-tetrahydro-5H-pyrrolo[1,2-a]azepine-8-carboxamide]
> 1000 nM | − (− indicates < 10-fold) | CC(C)(C)c1ccc(C2c3cccn3CCC2C(=O)Nc2ccc(OC(F)(F)F)cc2)cc1 (stereo not drawn) [Example 97, 8-(4-tert-Butylphenyl)-N-(4-(trifluoromethoxy)phenyl)-5,6,7,8-tetrahydroindolizine-7-carboxamide]
> 1000 nM | − (− indicates < 10-fold) | CC(C)(C)c1ccc(C2c3cccn3CCCN2C(=O)CN2CCOCC2)cc1 (stereo not drawn) [Example 52, 1-(1-(4-tert-Butylphenyl)-4,5-dihydro-1H-pyrrolo[1,2-a][1,4]diazepin-2(3H)-yl)-2-morpholinoethanone]
> 1000 nM | − (− indicates < 10-fold) | CC(C)(C)c1ccc(C2c3nccn3CCCN2C(=O)Nc2ccc(Cl)cc2Cl)cc1 (stereo not drawn) [Example 29, 9-(4-tert-Butylphenyl)-N-(2,4-dichlorophenyl)-6,7-dihydro-5H-imidazo[1,2-a][1,4]diazepine-8(9H)-carboxamide]
> 1000 nM | + (+ indicates > 10-fold) | CC(C)(C)C1CCC(C2NCCCn3cccc32)CC1 (stereo not drawn) [Example 32, 1-(4-tert-Butylcyclohexyl)-2,3,4,5-tetrahydro-1H-pyrrolo[1,2-a][1,4]diazepine]
< 1000 nM | + (+ indicates > 10-fold) | CC(C)(C)c1ccc(CC2c3cccn3CCCN2C(=O)Nc2ccc(F)cc2F)cc1 (stereo not drawn) [Example 23, 1-(4-tert-Butylbenzyl)-N-(2,4-difluorophenyl)-4,5-dihydro-1H-pyrrolo[1,2-a][1,4]diazepine-2(3H)-carboxamide]
< 1000 nM | − (− indicates < 10-fold) | Cc1ccc(C2c3cccn3CCCN2C(=O)Nc2ccc(F)cc2F)cc1 (stereo not drawn) [Example 8, N-(2,4-Difluorophenyl)-1-p-tolyl-4,5-dihydro-1H-pyrrolo[1,2-a][1,4]diazepine-2(3H)-carboxamide]
< 1000 nM | + (+ indicates > 10-fold) | CC(C)(C)c1ccc(C2=C(NC(=O)Nc3ccc(Cl)cc3)CCCn3cccc32)cc1 [Example 83, (E)-1-(9-(4-tert-Butylphenyl)-6,7-dihydro-5H-pyrrolo[1,2-a]azepin-8-yl)-3-(4-chlorophenyl)urea]
< 1000 nM | + (+ indicates > 10-fold) | CC(C)(C)c1ccc(C2c3nccn3CCCN2C(=O)Nc2ccc(F)c(F)c2)cc1 (stereo not drawn) [Example 28, 9-(4-tert-Butylphenyl)-N-(3,4-difluorophenyl)-6,7-dihydro-5H-imidazo[1,2-a][1,4]diazepine-8(9H)-carboxamide]
> 1000 nM | + (+ indicates > 10-fold) | CC(C)(C)c1ccc(C2c3cccnc3OCCN2C(=O)Nc2ccc(F)c(F)c2)cc1 (stereo not drawn) [Example 139, 5-(4-tert-Butylphenyl)-N-(3,4-difluorophenyl)-2,3-dihydropyrido[3,2-f][1,4]oxazepine-4(5H)-carboxamide]
> 1000 nM | − (− indicates < 10-fold) | O=C(Nc1ccc(C(F)(F)F)cc1)C1CCn2cccc2C1c1ccccc1 (mixture of isomers) [Example 103, 8-Phenyl-N-(4-(trifluoromethyl)phenyl)-5,6,7,8-tetrahydroindolizine-7-carboxamide]
> 1000 nM | + (+ indicates > 10-fold) | CC(C)(C)c1ccc(C2c3cccn3CCCC2NC(=O)Nc2ccc(Cl)cc2)cc1 (mixture of isomers) [Example 115, 1-(9-(4-tert-Butylphenyl)-6,7,8,9-tetrahydro-5H-pyrrolo[1,2-a]azepin-8-yl)-3-(4-chlorophenyl)urea]
< 1000 nM | − (− indicates < 10-fold) | CC(C)(C)c1ccc(C2=C(C(=O)Nc3ccc(F)cc3F)CCCn3cccc32)cc1 [Example 62, (E)-9-(4-tert-Butylphenyl)-N-(2,4-difluorophenyl)-6,7-dihydro-5H-pyrrolo[1,2-a]azepine-8-carboxamide]
< 1000 nM | + (+ indicates > 10-fold) | CC(C)(C)c1ccc(C2=C(C(=O)Nc3ccc(F)c(F)c3)CCn3cccc32)cc1 [Example 59, 8-(4-tert-Butylphenyl)-N-(3,4-difluorophenyl)-5,6-dihydroindolizine-7-carboxamide]
< 1000 nM | + (+ indicates > 10-fold) | CC(C)(C)c1ccc(C2[C@@H]3CCCN3CCCN2C(=O)Nc2ccc(F)c(F)c2)cc1 (stereo partly drawn) [Example 130, (9aS)-1-(4-tert-Butylphenyl)-N-(3,4-difluorophenyl)hexahydro-1H-pyrrolo[1,2-a][1,4]diazepine-2(3H)-carboxamide]
> 1000 nM | − (− indicates < 10-fold) | CC(C)(C)c1ccc(C2=C(C(=O)Nc3ccc(Cl)cc3Cl)CCCn3cncc32)cc1 [Example 80, (E)-9-(4-tert-Butylphenyl)-N-(2,4-dichlorophenyl)-6,7-dihydro-5H-imidazo[1,5-a]azepine-8-carboxamide]
> 1000 nM | − (− indicates < 10-fold) | O=C(Nc1ccc(F)cc1F)N1CCCn2cccc2C1c1ccccc1 (stereo not drawn) [Example 12, N-(2,4-Difluorophenyl)-1-phenyl-4,5-dihydro-1H-pyrrolo[1,2-a][1,4]diazepine-2(3H)-carboxamide]
< 1000 nM | + (+ indicates > 10-fold) | CC(C)(C)c1ccc(C2c3cccnc3CCCN2C(=O)Nc2ccc(F)c(F)c2)cc1 (stereo not drawn) [Example 135, 5-(4-tert-Butylphenyl)-N-(3,4-difluorophenyl)-8,9-dihydro-5H-pyrido[3,2-c]azepine-6(7H)-carboxamide]
> 1000 nM | − (− indicates < 10-fold) | CC(C)(C)c1ccc(C2c3cccn3CCCC2NC(=O)Nc2ccc(Cl)cc2Cl)cc1 (single isomer, unassigned) [Example 119, 1-(9-(4-tert-Butylphenyl)-6,7,8,9-tetrahydro-5H-pyrrolo[1,2-a]azepin-8-yl)-3-(2,4-dichlorophenyl)urea]
> 1000 nM | − (− indicates < 10-fold) | CC(C)(C)c1cccc(C2c3cccn3CCCN2C(=O)Nc2ccc(Cl)cc2Cl)c1 (stereo not drawn) [Example 19, 1-(3-tert-Butylphenyl)-N-(2,4-dichlorophenyl)-4,5-dihydro-1H-pyrrolo[1,2-a][1,4]diazepine-2(3H)-carboxamide]
> 1000 nM | − (− indicates < 10-fold) | O=C(Nc1ccc(OC(F)(F)F)cc1)C1CCn2cccc2C1c1ccccc1 (mixture of isomers) [Example 104, 8-Phenyl-N-(4-(trifluoromethoxy)phenyl)-5,6,7,8-tetrahydroindolizine-7-carboxamide]
